Test results published in ChEMBL document CHEMBL3507680, “University of Dundee, Gates Library screen for HepG2 cell viability”.

Test: Human HepG2 cell viability assay in 384 well format
Assay type: toxicity, cell-based
Parameters: dose 125 nL, time 70.5 hour; concentration not given beside the values
Conditions: HepG2 cells, read-out: Inhibition

Row | Compound | cytotoxicity at 70.5 h [%]
1 | COc1ccc(CC(C)Nc2cccc(SC)c2)cc1 (stereo not given) | -5.87
2 | CSc1ccc(C(=O)C2CCCN(C(=O)CCn3cncn3)C2)cc1 (stereo not given) | -16.6
3 | Cc1ccccc1NC(=O)CNC(C)COc1ccccc1 (stereo not given) | -9.44
4 | CCOC(=O)CCNC(=O)N1CCCC(CNC(=O)c2ccco2)C1 (stereo not given) | 3.18
5 | Cc1cnc(N2CCCC(c3ccccc3)C2)nc1-c1ccnn1C (stereo not given) | -8.04
6 | CC1(c2ccccc2)CCCN(Cc2cncn2C2CC2)C1 (stereo not given) | -8.21
7 | CSC(C)CCN(Cc1ccccn1)Cc1sccc1C (stereo not given) | -4.96
8 | CSc1ccccc1CN1C[C@H]2C(=O)N(CC3CC3)C[C@@]2(C(=O)O)C1 | -0.998
9 | CCCN(Cc1nc(-c2ccc(F)c(OC)c2)oc1C)CC1CCCO1 (stereo not given) | -5.99
10 | CCNc1ncc(CN2C[C@H](C3CC3)[C@@H](N)C2)cn1 | -1.95
11 | O=C(c1ccncc1Cl)N1CCN(Cc2ccco2)C(CCO)C1 (stereo not given) | 16.2
12 | O=C(O)C1(Cc2ccccc2Cl)CCN(c2ncccn2)CC1 | -10.5
13 | Cc1cc(N2CCCC(O)CC2)n2nc(C)c(C)c2n1 (stereo not given) | 1.18
14 | COc1ccc(-c2cccc(-c3ccn(CCCN(C)C)n3)c2)nn1 | -13.7
15 | COCCN(C)C[C@@H]1CN(C(=O)c2cccc(C#N)c2)C[C@@H]1CO | 12.6
16 | Cc1nc(N)ncc1C(=O)N1CCCC(CCc2ccc(F)cc2)C1 (stereo not given) | -18.8
17 | CCc1ccc(CN(C)Cc2nc(-c3cnccn3)no2)nc1 | -13.4
18 | Cc1n[nH]c(C)c1CCCNCc1cn(CCC(N)=O)c2ccccc12 | -3.31
19 | Cc1nnc(SCCCNC(=O)Cc2ccc3c(c2)OCO3)s1 | 11.5
20 | c1ccc2c(c1)CC(N1CCCC(NCc3ccc4nonc4c3)C1)C2 (stereo not given) | -17.7
21 | CC1(C)[C@H]2CC=C(CN3CCCn4nc(C(=O)O)cc4C3)[C@@H]1C2 | -19.9
22 | O=C(CCC(=O)N1CCNC(=O)C1c1cccc(F)c1)NC1CCCC1 (stereo not given) | -6.2
23 | CCCn1ncc(CN(CCN(C)C)Cc2ccsc2)c1C | 31.8
24 | CC(=O)N[C@@H]1CN(c2nc(CO)cs2)C[C@H]1c1ccc(C)o1 | -12.8
25 | CC(C)=CCN1C[C@H]2CC[C@@H]1CN(C(=O)CSc1ccncc1)C2 | -0.143
26 | c1ccc(C2CCN(c3ncnc4c3CCNC4)CC2)cc1 | -4.79
27 | Cc1cc(C(F)(F)F)cc(N2CCN(Cc3ccccc3)CC(O)C2)n1 (stereo not given) | 3.5
28 | CC(C)(C)c1oc(C(N)=O)cc1CN1CCCCC1CN1CCOCC1 (stereo not given) | 39.9

Row | Compound | cytotoxicity at 70.5 h [%]
29 | COc1ccccc1[C@@H]1CN(Cc2c(C)noc2C)C[C@H]1C(=O)O | -8.62
30 | COCCC1(C(=O)O)CCCN(C(=O)c2cc(Cl)ccc2F)C1 (stereo not given) | -5.3
31 | CC(C)S(=O)(=O)N1CCCC(c2nnc(Cn3ccnc3)n2C)C1 (stereo not given) | -7.74
32 | CN(C)CC1(O)CCCN(C(=O)CCn2cc(Cl)cn2)C1 (stereo not given) | 26.8
33 | CC(c1cccs1)N(C)Cc1cnc(-c2ccccn2)nc1 (stereo not given) | 3.52
34 | CCCc1nc(CN(CC)C(=O)c2ccc(S(C)(=O)=O)cc2)no1 | -8.4
35 | Cc1nc(CCN(C)C(=O)CN2C(=O)OC[C@@H]2c2ccccc2)no1 | -4.02
36 | Fc1ccc(-n2cccn2)c(CN2CCCCC2CCn2ccnc2)c1 (stereo not given) | 1.83
37 | COc1nccnc1N1C[C@@H]2CC[C@H](C1)N(CC=C(C)C)C2=O | -20.8
38 | CCC(C(=O)NC1(C(N)=O)CCCC1)n1cccn1 (stereo not given) | -13.8
39 | CCN(Cc1cnc(-c2ccccn2)nc1)C1CCS(=O)(=O)C1 (stereo not given) | 5
40 | COCCNCC1(O)CCCN(Cc2ccc(F)c(F)c2)C1=O (stereo not given) | -2.23
41 | Cn1ccnc1-c1ccc(NCC2COc3ccccc3O2)nn1 (stereo not given) | 1.13
42 | COC[C@]1(O)CCN(C2CCN(c3ccc(Cl)cc3)CC2)CC1(C)C | 22.5
43 | CCN1CC(c2ccccc2)CC2(CCN(Cc3ncc[nH]3)CC2)C1 (stereo not given) | -9.77
44 | CC(=O)N1CCN(Cc2c(C)ccc3ccccc23)CC(O)C1 (stereo not given) | -6.49
45 | CCOc1ccccc1C(C(=O)O)N(C)Cc1nnc(C)o1 (stereo not given) | -2.69
46 | Cc1cnc(N2CCCC(c3ccccc3)C2)nc1-c1ncnn1C (stereo not given) | -9.97
47 | O=C(CCN1CCOC(C(F)(F)F)C1)NCc1ccc(Cl)cc1 (stereo not given) | -0.312
48 | COc1nc(C)c(C(=O)N2CCC(C(O)Cc3ccccc3)CC2)s1 (stereo not given) | -11.5
49 | N#Cc1ccccc1C(=O)N1C[C@@H](CN2CCCCC2)[C@@H](CO)C1 | -5.21
50 | CC(=O)NCCNC(=O)c1cnc2c(c1)nc(-c1ccccc1Cl)n2C | -6
51 | Cc1c[nH]c(CN2CCN(C)C3(CCC(=O)N(CC4CC4)CC3)C2)n1 (stereo not given) | 19.9
52 | Cc1ccc(OC2(C(=O)NC(C)Cc3ccncc3)CCNCC2)cc1 (stereo not given) | -6.8
53 | CN(CCc1ccccn1)C(=O)CCC1CCCN(S(C)(=O)=O)C1 (stereo not given) | 3.47
54 | Cc1nc(O)cc(C2CCN(C(=O)c3[nH]nc4c3CC(C)CC4)CC2)n1 (stereo not given) | -11
55 | COC(=O)CNc1ccc(-c2nc(Cc3ccc(OC)cc3)no2)cn1 | -10.8
